Data from ChEMBL document CHEMBL1201862, “PubChem BioAssay data set” (2004).
Calls of active or inactive are those of the source.

Columns and labels:
cells [1] = type: functional, cell-based
Beta-galactosidase = Beta-galactosidase (Escherichia coli, UniProt Q8VNN2); assay: PubChem AID 485352; type: functional
[2] = target: T1, Type-1 angiotensin II receptor (Homo sapiens, UniProt P30556); assay: AT1 receptor antagonists, dose response, selectivity assay for APJ receptor antagonist project, cell-based, uHTS hits (AID 463214); type: functional;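 further: antagonist potency against angiotensin II stimulated AT1 response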
T1 sequence (P30556 whole entry): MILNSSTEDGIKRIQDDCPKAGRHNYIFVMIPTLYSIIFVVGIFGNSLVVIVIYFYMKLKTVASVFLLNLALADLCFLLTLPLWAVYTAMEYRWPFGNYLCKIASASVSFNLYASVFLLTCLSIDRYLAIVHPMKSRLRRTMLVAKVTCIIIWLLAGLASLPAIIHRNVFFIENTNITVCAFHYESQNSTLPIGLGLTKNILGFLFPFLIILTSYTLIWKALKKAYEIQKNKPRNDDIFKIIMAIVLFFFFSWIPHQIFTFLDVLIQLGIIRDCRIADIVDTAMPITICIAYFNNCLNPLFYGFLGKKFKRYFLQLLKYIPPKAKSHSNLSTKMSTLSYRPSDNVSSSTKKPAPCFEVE

cells [3] = type: functional, cell-based; remark: listed apart in the source
[4] = target: T2, Microphthalmia-associated transcription factor (Homo sapiens, UniProt O75030); assay: TRPM1 promoter luciferase signal decrease, dose response, MITF inhibitor project, cell-based, SK-MEL-5, cherry-picked, set 3 (AID 493073); type: functional
T2 sequence (O75030 whole entry): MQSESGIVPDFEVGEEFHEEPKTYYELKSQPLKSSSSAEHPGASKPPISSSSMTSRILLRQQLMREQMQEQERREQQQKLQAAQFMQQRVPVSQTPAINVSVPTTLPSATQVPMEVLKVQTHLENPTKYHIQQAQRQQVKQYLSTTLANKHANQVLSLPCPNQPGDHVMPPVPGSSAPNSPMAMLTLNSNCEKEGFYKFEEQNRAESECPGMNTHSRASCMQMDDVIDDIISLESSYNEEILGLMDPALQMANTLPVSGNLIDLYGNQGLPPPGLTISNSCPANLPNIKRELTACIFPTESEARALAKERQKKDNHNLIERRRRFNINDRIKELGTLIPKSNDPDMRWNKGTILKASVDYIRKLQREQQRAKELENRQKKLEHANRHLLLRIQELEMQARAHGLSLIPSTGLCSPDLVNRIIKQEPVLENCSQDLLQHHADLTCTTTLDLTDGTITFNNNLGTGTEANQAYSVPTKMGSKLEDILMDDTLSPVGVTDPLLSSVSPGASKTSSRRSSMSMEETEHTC

CHO = assay: cytotoxicity in TLR9-MyD88 CHO cells, dose response, cytotoxicity control for TLR9-MyD88 binding inhibitor project, cell-based, luminescence (AID 588339); type: functional, hamster; conditions: Cricetulus griseus;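 further: CHO cells stably coexpressing TLR9 and MyD88 fusions from primary screen; compound exposure lasted 48 hours before viability readout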
Beta Lactamase [5] = target: T3, Beta Lactamase (Pseudomonas aeruginosa, UniProt Q932Y6); assay: beta-lactamase reporter inhibitor potency, dose response, artefact control for TLR9-MyD88 binding inhibitor project, BLA reporter cells, FRET fluorescence (AID 588341); type: cell-based;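 further: cell based assay in CHO-K1 cells stably expressing beta-lactamase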
T3 sequence (Q932Y6 whole entry, the tested form may be a part): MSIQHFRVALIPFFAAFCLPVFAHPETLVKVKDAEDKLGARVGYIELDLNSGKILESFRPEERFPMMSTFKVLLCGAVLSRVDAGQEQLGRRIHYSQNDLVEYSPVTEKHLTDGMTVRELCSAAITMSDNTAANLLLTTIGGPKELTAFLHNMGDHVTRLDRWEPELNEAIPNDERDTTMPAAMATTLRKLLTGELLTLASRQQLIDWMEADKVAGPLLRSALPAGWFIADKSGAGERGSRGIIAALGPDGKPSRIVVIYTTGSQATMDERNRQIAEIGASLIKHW

[6] = Fluorescence-based cell-based high throughput dose response assay for inhibitors of the interaction of nucleotide-binding oligomerization domain containing 2 (NOD2) and the receptor-interacting serine-threonine kinase 2 (RIPK2).; type: functional; conditions: Homo sapiens
Beta Lactamase [7] = target: T3, Beta Lactamase; assay: beta-lactamase reporter inhibitor potency, dose response, artefact control for NOD2-RIPK2 interaction inhibitor project, BLA reporter cells, FRET fluorescence (AID 651552); type: functional, cell-based
[8] = target: T4, ATP-dependent translocase ABCB1 (Homo sapiens, UniProt P08183); assay: ABCG2 efflux pump inhibitor potency, dose response, Ig-MXP3 cells, JC-1, flow cytometry, set 2 (AID 504566); type: functional; conditions: read-out: EC50_MICROM_;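 further: flow cytometry median green fluorescence of retained JC-1 dye; potency of efflux pump inhibition measured as rising substrate retention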
T4 sequence (P08183 whole entry): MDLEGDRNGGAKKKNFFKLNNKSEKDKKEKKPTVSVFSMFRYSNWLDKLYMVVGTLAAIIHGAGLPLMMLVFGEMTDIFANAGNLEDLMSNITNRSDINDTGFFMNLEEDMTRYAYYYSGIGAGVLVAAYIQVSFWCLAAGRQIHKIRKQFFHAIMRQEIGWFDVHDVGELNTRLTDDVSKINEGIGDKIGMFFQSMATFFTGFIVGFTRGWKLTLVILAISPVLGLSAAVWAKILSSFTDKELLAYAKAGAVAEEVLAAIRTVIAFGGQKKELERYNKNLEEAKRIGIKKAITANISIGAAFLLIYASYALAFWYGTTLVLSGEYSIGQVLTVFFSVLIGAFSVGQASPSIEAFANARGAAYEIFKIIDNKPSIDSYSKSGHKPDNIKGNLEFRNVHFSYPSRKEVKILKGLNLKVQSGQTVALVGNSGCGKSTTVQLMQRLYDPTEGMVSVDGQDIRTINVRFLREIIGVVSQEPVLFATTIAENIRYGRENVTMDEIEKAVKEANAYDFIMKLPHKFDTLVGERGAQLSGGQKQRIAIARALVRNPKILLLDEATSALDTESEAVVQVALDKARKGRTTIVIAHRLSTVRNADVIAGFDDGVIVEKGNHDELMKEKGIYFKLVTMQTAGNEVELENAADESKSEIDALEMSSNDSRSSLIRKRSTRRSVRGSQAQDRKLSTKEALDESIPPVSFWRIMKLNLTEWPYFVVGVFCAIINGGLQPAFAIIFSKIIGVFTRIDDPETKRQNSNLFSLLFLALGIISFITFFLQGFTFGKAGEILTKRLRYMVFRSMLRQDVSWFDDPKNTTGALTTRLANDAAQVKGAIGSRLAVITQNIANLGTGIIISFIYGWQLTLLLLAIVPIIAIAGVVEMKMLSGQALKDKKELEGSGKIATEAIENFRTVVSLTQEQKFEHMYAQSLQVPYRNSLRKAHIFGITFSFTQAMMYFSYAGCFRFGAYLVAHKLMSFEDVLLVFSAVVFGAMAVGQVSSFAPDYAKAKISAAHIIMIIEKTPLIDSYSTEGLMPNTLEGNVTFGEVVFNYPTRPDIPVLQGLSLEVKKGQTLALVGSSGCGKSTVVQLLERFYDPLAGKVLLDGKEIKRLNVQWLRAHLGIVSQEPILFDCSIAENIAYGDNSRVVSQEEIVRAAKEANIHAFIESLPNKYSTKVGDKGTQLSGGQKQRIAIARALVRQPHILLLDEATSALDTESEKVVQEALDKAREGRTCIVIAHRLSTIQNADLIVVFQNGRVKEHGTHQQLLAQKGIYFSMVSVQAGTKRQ

[9] = target: T4, ATP-dependent translocase ABCB1; assay: ABCB1 efflux inhibitor potency, dose response, Jurkat-DNR cells, JC-1, flow cytometry, set 2 (AID 504569); type: functional; conditions: read-out: EC50_MICROM_;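 further: potency of pump inhibitors that raise cellular JC-1 green fluorescence up to the nicardipine level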
[10] = ARNT/TACC3 interaction disruptors, potency, confirmation, biochemical, AlphaScreen, cherry-picked samples (AID 651703); type: functional, Homo sapiens;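 further: His-tagged ARNT PAS-B domain paired with GST-TACC3 E629A dimer coactivator fragment; potency of inhibitors that break up the complex and lower AlphaScreen signal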
[11] = target: T5, 1-phosphatidylinositol 4,5-bisphosphate phosphodiesterase gamma-1 (Homo sapiens, UniProt P19174); assay: Counterscreen for inhibitors of phospholipase C isozymes (PLC-B3): Fluorescence-based biochemical high throughput dose response assay to identify inhibitors of phospholipase C isozymes (PLC-gamma1).
T5 sequence (P19174 whole entry): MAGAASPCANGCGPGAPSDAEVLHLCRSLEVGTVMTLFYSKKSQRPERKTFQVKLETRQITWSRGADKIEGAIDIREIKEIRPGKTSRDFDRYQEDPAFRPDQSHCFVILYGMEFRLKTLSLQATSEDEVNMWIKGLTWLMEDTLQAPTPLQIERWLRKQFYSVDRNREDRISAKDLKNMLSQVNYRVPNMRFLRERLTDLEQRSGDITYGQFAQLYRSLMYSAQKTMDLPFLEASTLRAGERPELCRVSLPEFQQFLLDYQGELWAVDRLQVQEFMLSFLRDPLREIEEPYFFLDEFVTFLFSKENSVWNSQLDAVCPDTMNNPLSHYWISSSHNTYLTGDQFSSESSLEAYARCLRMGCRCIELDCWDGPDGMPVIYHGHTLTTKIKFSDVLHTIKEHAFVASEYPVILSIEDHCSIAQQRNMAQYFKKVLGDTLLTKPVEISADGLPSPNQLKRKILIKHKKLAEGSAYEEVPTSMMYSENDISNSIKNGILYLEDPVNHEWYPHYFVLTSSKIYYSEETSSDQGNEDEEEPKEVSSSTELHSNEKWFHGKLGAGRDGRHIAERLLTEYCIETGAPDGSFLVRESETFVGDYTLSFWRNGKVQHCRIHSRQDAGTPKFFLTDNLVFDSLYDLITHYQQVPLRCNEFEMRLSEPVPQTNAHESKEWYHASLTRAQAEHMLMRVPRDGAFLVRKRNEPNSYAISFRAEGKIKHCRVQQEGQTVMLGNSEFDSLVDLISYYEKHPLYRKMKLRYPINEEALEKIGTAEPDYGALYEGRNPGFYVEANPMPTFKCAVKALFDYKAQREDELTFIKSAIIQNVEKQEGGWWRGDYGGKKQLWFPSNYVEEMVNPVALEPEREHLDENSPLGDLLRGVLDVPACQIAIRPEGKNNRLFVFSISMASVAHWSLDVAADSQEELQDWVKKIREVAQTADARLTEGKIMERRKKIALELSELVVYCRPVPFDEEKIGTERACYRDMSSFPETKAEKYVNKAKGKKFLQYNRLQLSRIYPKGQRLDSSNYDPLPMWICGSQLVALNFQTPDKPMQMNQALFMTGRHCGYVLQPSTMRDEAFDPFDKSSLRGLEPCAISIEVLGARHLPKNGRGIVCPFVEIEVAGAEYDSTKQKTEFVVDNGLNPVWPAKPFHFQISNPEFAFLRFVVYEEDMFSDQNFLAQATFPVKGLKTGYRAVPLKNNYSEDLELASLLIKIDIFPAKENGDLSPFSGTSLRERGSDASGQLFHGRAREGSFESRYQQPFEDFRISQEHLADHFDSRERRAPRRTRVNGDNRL

[12] = target: T6, 1-phosphatidylinositol 4,5-bisphosphate phosphodiesterase beta-3 (Homo sapiens, UniProt Q01970); assay: Fluorescence-based biochemical high throughput dose response assay to identify inhibitors of phospholipase C isozymes (PLC-B3).
T6 sequence (Q01970 whole entry): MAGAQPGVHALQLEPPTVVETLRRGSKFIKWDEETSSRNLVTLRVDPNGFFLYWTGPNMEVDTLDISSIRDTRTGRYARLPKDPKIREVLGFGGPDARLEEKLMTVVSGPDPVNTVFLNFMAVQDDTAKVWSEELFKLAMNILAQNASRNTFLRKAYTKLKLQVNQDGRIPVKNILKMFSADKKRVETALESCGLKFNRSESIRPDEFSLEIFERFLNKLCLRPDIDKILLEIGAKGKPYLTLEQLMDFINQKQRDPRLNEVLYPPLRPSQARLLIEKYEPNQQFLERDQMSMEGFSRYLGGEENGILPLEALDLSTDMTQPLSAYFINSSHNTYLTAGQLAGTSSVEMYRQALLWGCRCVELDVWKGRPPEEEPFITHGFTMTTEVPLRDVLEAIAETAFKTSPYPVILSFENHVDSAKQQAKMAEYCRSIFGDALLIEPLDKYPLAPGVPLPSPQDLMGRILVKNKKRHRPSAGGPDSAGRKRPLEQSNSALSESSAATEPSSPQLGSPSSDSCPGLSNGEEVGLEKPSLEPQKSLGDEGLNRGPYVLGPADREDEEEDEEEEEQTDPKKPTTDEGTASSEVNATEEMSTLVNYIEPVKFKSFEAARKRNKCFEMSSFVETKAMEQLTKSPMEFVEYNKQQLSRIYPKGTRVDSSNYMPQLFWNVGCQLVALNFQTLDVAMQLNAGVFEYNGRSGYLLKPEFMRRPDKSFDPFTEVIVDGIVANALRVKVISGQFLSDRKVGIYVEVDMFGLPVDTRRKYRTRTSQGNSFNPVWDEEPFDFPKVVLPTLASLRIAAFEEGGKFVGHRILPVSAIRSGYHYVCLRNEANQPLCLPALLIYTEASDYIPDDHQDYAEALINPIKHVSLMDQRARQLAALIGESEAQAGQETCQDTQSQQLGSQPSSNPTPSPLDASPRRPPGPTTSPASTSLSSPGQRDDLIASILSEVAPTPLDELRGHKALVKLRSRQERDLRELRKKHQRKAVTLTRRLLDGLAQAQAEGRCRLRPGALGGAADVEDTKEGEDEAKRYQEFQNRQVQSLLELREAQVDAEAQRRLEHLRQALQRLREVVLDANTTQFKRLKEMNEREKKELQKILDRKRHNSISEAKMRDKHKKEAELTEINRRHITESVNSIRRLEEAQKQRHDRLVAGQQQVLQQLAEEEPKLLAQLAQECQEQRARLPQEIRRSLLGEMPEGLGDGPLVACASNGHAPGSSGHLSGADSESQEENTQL

Chain of Beta-galactosidase (Q8VNN2 whole entry): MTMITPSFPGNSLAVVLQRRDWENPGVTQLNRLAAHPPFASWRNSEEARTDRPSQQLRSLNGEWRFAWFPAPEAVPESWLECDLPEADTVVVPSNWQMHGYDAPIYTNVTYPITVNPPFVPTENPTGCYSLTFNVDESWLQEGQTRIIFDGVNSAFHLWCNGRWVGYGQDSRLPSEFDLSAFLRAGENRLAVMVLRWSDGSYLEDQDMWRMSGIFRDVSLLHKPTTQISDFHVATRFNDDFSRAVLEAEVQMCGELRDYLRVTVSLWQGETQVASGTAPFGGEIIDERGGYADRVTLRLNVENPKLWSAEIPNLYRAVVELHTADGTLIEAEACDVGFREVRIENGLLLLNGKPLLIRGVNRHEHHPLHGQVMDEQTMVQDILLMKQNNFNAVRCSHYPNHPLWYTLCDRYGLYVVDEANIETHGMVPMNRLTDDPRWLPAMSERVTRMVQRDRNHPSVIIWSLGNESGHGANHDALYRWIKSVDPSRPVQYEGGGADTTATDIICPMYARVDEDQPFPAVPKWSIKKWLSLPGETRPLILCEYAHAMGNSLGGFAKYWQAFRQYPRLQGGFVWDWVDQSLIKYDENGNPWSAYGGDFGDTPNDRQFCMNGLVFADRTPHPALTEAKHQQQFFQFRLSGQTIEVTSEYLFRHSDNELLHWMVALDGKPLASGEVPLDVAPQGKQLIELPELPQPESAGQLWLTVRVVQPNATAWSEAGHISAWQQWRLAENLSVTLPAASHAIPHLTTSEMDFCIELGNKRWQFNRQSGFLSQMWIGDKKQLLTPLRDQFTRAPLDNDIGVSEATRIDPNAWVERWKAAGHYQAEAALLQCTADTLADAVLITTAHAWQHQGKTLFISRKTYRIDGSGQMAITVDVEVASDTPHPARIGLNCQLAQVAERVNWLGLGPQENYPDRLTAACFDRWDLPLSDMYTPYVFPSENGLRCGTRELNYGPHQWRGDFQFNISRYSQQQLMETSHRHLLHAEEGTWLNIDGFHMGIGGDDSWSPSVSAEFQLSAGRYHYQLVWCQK

## COc1ccc(C(=O)/C=C/C(=O)N(CC(=O)NC2CCCCC2)CC2CCCO2)c(O)c1 (centres undefined)
Cells [1]
  EC50: > 350 µM (not active)
Beta-galactosidase
  EC50: > 40 µM (inactive)
[2]
  IC50: 5.35 µM (active)
Cells [3]
  EC50: 34.3 µM (active)
[4]
  AC50: 4.01 µM (active)
CHO
  IC50: 1.84 µM (active)
Beta Lactamase [5]
  IC50: 23.3 µM (inactive)
[6]
  IC50: 2.17 µM (active)
Beta Lactamase [7]
  IC50: 19.9 µM (inactive)

## Cc1cc(N2CCN(C(=O)c3ccco3)CC2)n2nc(C)c(-c3ccc(Cl)cc3)c2n1
[8]
  EC50: 17.7 µM (inactive)
[9]
  EC50: 28.1 µM (inactive)

## CCOc1ccccc1Nc1nc(N)nc(CN(C)C2CCCCC2)n1
[10]
  AC50: 80.6 µM (active)
[11]
  IC50: > 123 µM (inactive)
[12]
  IC50: > 123 µM (inactive)
